Data on 14 compounds can be found in PubChem BioAssay (NCI).

SMILES strings stand for the structures.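 The compound was tested at five concentrations on cells cultured in 96-well plates, with a 48-hour exposure period. TGI denotes the concentration required for complete inhibition of growth.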 Bounds are passed on as bounds.

Common to all, as to assay: NCI anticancer screen, dose series, 48 h
Experiment [1] relates to OVCAR-8 ovarian.
Experiment [2] concerns OVCAR-3 ovarian.
The subject of experiment [3] is NCI-H522 lung.
For experiment [4], the system named is HOP-92 NSCLC.
The test system of experiment [5] is SK-MEL-5 melanoma.
In experiment [6] the test system is NCI-H460 lung.
Experiment [7] concerns TK-10 renal.
The test system of experiment [8] is MALME-3M melanoma.
In experiment [9] the test system is ACHN renal.
Experiment [10] relates to EKVX NSCLC.
Experiment [11] concerns HOP-62 NSCLC.
Experiment [12] relates to IGROV1 ovarian.
The subject of experiment [13] is MDA-MB-435.
The test system of experiment [14] is HCT-15 colon.
Experiment [15] has as its system COLO 205 colon.
The subject of experiment [16] is SW-620 colon.
Experiment [17] deals with BT-549 breast.
In experiment [18] the test system is SNB-19 CNS.
The subject of experiment [19] is A549 NSCLC.
Experiment [20] relates to MDA-N.

For `COC(=O)/C=C(\S/C(=N\n1cc(C(=O)OC)c(C(=O)OC)c1-c1ccc(C)cc1)c1ccc(C)cc1)C(=O)OC`, the TGI was 34.9 µM in [1]; 12.4 µM in [2]; 3.7 µM in [3]; 8.31 µM in experiment [4]; 27.1 µM in experiment [5]; over 56.6 µM in [6]. In addition, the TGI stood at 8.42 µM in [7]; 13.9 µM in experiment [8]; 5.78 µM in experiment [9]; 32.8 µM in experiment [10]; 41.6 µM in experiment [11]; 44.5 µM in [12]. Also, the TGI in [13] is 13.5 µM; in [14], 7.34 µM; in [15], 6.61 µM; in [16] it was 5.53 µM; in [17] it was 21.3 µM; in experiment [18] it was over 61 µM. The TGI in experiment [19] was found to be 51.8 µM; in experiment [20] it was 12.7 µM.
Turning to `O=C1C(Cl)C(c2cc3cc(Br)ccc3nc2Cl)N1c1ccc(Cl)cc1` (stereo not given), the TGI in experiment [1] was over 25 µM; in experiment [2], 13.8 µM; in experiment [3], 8.25 µM; in experiment [4], 7.2 µM; in experiment [5], 6.38 µM; in [6], 20.9 µM. For the same compound, the TGI is 13.3 µM in experiment [7]; 8.91 µM in experiment [8]; 11.2 µM in [9]; 8.13 µM in experiment [10]; over 25 µM in [11]; 7.17 µM in experiment [12]. The TGI is 17.7 µM in experiment [13]; 13.3 µM in experiment [14]; 10.2 µM in experiment [15]; over 25 µM in experiment [16]; 11.6 µM in experiment [17]; over 25 µM in experiment [18]. Moreover, the TGI in [19] is over 25 µM; in experiment [20], 15.9 µM.
In the case of `Cc1nc2c(o1)C(=O)c1ccccc1C2=Nc1ccc(N2CCOCC2)cc1`, the TGI was over 27.7 µM in experiment [1]; 5.12 µM in [2]; 7 µM in [3]; over 100 µM in experiment [4]; 3.2 µM in experiment [5]; 26.8 µM in experiment [6]. Besides, the TGI in experiment [7] came out at 99.1 µM; in experiment [8] it was 3.25 µM; in experiment [9] it was 18.9 µM; in [10] it was 17.4 µM; in [11], 22.3 µM; in experiment [12], 30.4 µM. The TGI in experiment [13] was found to be 3.58 µM; in [14], 15.8 µM; in experiment [15] it was 55.5 µM; in experiment [16], 26.5 µM; in experiment [17], 5.73 µM; in experiment [18] it was 36.9 µM. The TGI in experiment [19] came out at 17.8 µM; in [20], 3.5 µM.
In the case of `CN(C)CCCCN1c2ccccc2Sc2ccc(C(=O)c3ccccc3)cc21`, the TGI in experiment [1] was 7.91 µM; in experiment [2] it was 9.88 µM; in experiment [3] it was 6.84 µM; in experiment [4], 8.99 µM; in [5] it was 3.42 µM; in experiment [6], 5.46 µM. Besides, the TGI in experiment [7] came to 8.42 µM; in [8], 3.33 µM; in experiment [9], 7.19 µM; in [10], 15.9 µM; in [11], 6.99 µM; in [12] it was 7.89 µM. Further, the TGI in [13] was 3.51 µM; in experiment [14], 9.27 µM; in experiment [15], 3.13 µM; in [16] it was 2.91 µM; in [17] it was 18.8 µM; in experiment [18], 12 µM. The values for the TGI in experiment [19] and in experiment [20] were 7.22 µM and 6.74 µM, respectively.
Regarding `Cc1ccc2[nH]c3c(c2c1)C1CCC(C(C)(C)C)CC1C1C(=O)N(c2ccc4c(c2)OCO4)C(=O)C31` (stereo not given), the TGI in experiment [1] turned out to be 4.28 µM; in [2] it was 3.08 µM; in experiment [3] it was 7.18 µM; in [4] it was 6.22 µM; in experiment [5], 22.9 µM; in [6], 3.27 µM. For the same compound, the TGI in experiment [7] turned out to be 4.32 µM; in experiment [8], 6.14 µM; in [9], 3.63 µM; in experiment [10] it was 10.1 µM; in [11], 4.24 µM; in experiment [12], 6.68 µM. Also, the TGI was 20.5 µM in [13]; 16.5 µM in [14]; 12.5 µM in experiment [15]; 7.95 µM in experiment [16]; 20.6 µM in experiment [17]; 7.97 µM in [18]. In addition, the values for the TGI in experiment [19] and in [20] were 6.38 µM and 17.6 µM, respectively.
For the compound `Cc1nc2ccccc2c(=O)n1NC(=S)Nc1ccc(Cl)cc1[N+](=O)[O-]`, the TGI in [1], in experiment [2], in [3], in [4], in [5] and in [6] was over 100 µM in each case. In addition, the TGI in [7], in [8], in experiment [9], in experiment [10], in [11] and in [12] was over 100 µM throughout. In addition, the TGI in experiment [13], in experiment [14], in [15], in experiment [16], in experiment [17] and in experiment [18] was over 100 µM in each case. Also, the TGI in [19] and in [20] was over 100 µM throughout.
Regarding `Cn1c2c3ccc(Cl)cc3nc-2c(Cl)c2ccccc21`, the TGI in experiment [1] is over 100 µM; in experiment [2], 29.7 µM; in experiment [3], 33.6 µM; in [4] it was 37.1 µM; in experiment [5], 42.7 µM; in experiment [6] it was 43.8 µM. Besides, the TGI in [7] worked out at 32.5 µM; in experiment [8] it was 34 µM; in experiment [9], 32 µM; in [10], 90.2 µM; in [11], 45.3 µM; in experiment [12], 42 µM. Moreover, the TGI in experiment [13] is 38.2 µM; in [14], 47.1 µM; in [15], 40.1 µM; in [16] it was 63.1 µM; in experiment [17] it was 50.1 µM; in experiment [18], over 100 µM. For the same compound, the TGI in experiment [19] was over 100 µM; in [20], 46.2 µM.
Consider `Nc1ncnc2c1ncn2[C@H]1CC[C@@H](NO)C1`, for which the TGI in experiment [1], in [2], in experiment [3], in experiment [4], in experiment [5] and in [6] was over 100 µM throughout. In addition, the TGI in [7], in experiment [8], in [9], in [10], in experiment [11] and in [12] was over 100 µM throughout. Moreover, the TGI in [13], in [14], in experiment [15], in experiment [16], in [17] and in [18] was over 100 µM each time. In addition, the TGI in experiment [19] and in [20] was over 100 µM in each case.
As for `CN(C)Cc1cc(C=O)cc(CN(C)C)c1O`, the TGI in experiment [1], in [2], in experiment [3], in [4], in experiment [5] and in [6] was over 100 µM in each case. For the same compound, the TGI in [7], in experiment [8], in experiment [9], in experiment [10], in [11] and in experiment [12] was over 100 µM each time. Moreover, the TGI in [13], in experiment [14], in experiment [15], in [16], in [17] and in [18] was over 100 µM each time. The TGI in experiment [19] and in experiment [20] was over 100 µM each time.
As to `CCOP(=O)(OCC)[C@H]1OC(C)(C)O[C@@H]1CO`, the TGI in [1], in [2], in experiment [3], in [4], in [5] and in experiment [6] was over 100 µM in each case. Also, the TGI in experiment [7], in experiment [8], in experiment [9], in [10], in experiment [11] and in experiment [12] was over 100 µM each time. Besides, the TGI in [13], in experiment [14], in experiment [15], in experiment [16], in experiment [17] and in experiment [18] was over 100 µM throughout. The TGI in experiment [19] and in [20] was over 100 µM each time.
In the case of `O=C(O)[C@@H]1NC[C@H]2C(Br)=NO[C@H]21`, the TGI in experiment [1], in experiment [2], in [3], in experiment [4], in [5] and in [6] was over 100 µM in each case. The TGI in [7], in experiment [8], in [9], in [10], in experiment [11] and in experiment [12] was over 100 µM in each case. Further, the TGI in experiment [13], in experiment [14], in experiment [15], in [16], in experiment [17] and in experiment [18] was over 100 µM in each case. Further, the TGI in experiment [19] and in experiment [20] was over 100 µM each time.
As to `CC(C)=CCN1c2ccc(Cl)cc2NC(=O)CC1C` (stereo not given), the TGI was determined as 39.6 µM in [1]; 36 µM in [2]; 47.4 µM in experiment [3]; 37.8 µM in experiment [4]; 32.2 µM in experiment [5]; 37.6 µM in [6]. Besides, the TGI in experiment [7] was determined as 87.7 µM; in experiment [8], 49.6 µM; in [9], 58.3 µM; in [10], 83.5 µM; in experiment [11] it was 61.7 µM; in experiment [12], 62.4 µM. Also, the TGI was 41.1 µM in experiment [13]; over 100 µM in [14]; 56.9 µM in [15]; over 100 µM in experiment [16]; 59.5 µM in experiment [17]; over 100 µM in [18]. Besides, the TGI in [19] was over 100 µM; in experiment [20], 51.7 µM.
For the compound `Cc1ccc(C)c2c1CC(Cc1ccccc1C(=O)O)C2=O` (stereo not given), the TGI in experiment [1], in experiment [2], in experiment [3], in experiment [4], in experiment [5] and in experiment [6] was over 100 µM each time. Besides, the TGI in experiment [7], in [8], in [9], in experiment [10], in [11] and in [12] was over 100 µM each time. The TGI in experiment [13], in experiment [14], in experiment [15], in experiment [16], in [17] and in [18] was over 100 µM each time. Besides, the TGI in experiment [19] and in [20] was over 100 µM in each case.
Regarding `CNC(=O)CN(C)C(=O)CCC(=O)N(C)C`, the TGI in experiment [1], in experiment [2], in experiment [3], in experiment [4], in experiment [5] and in [6] was over 100 µM in each case. Moreover, the TGI in experiment [7], in [8], in [9], in experiment [10], in experiment [11] and in experiment [12] was over 100 µM in each case. Besides, the TGI in [13], in experiment [14], in [15], in experiment [16], in [17] and in [18] was over 100 µM throughout. Further, the TGI in [19] and in [20] was over 100 µM each time.
